{
  "source": "PubChem BioAssay AID196",
  "about": "(DTP/NCI, 2004)",
  "test_system": "BDF1 mice, intracerebral B16 melanoma, median survival T/C",
  "test": "NCI In Vivo Anticancer Drug Screen. Data for tumor model B16 Melanoma (intracerebral) in B6D2F1 (BDF1) mice",
  "details": "endpoint: median survival time, higher = longer survival",
  "procedure": "The antitumor activity of compounds was measured in mice bearing transplantable tumors. Survival or tumor size were measured and the results are expressed as the measurement made in the treated group (T) divided by the measurement made in the vehicle treated control group (C). The tumor model used in this assay is B16 Melanoma (intracerebral) in B6D2F1 (BDF1) mice",
  "key": {"[1]": {"details": "dose: 0.13 mg/kg/injection, schedule: Q01DX009 (ip), vehicle: saline"}, "[2]": {"details": "dose: 0.25 mg/kg/injection, schedule: Q01DX009 (ip), vehicle: saline"}, "[3]": {"details": "dose: 0.25 mg/kg/injection, schedule: Q03HX008 (ip), vehicle: saline"}, "[4]": {"details": "dose: 0.5 mg/kg/injection, schedule: Q01DX009 (ip), vehicle: saline"}, "[5]": {"details": "dose: 0.5 mg/kg/injection, schedule: Q03HX008 (ip), vehicle: saline"}, "[6]": {"details": "dose: 1.0 mg/kg/injection, schedule: Q01DX009 (ip), vehicle: saline"}, "[7]": {"details": "dose: 1.0 mg/kg/injection, schedule: Q03HX008 (ip), vehicle: saline"}, "[8]": {"details": "dose: 2.0 mg/kg/injection, schedule: Q01DX009 (ip), vehicle: saline"}},
  "note": "Several values for one entry are separate records, joined by “and”; a condition that tells them apart may be missing. Equal entries are not always repeated. Toxic doses and inconclusive results are not listed.",
  "data": [
    {"smiles": "CC(=O)OC1COC(NC(=O)N(CCCl)N=O)C(OC(C)=O)C1OC(C)=O", "note": "(stereo not drawn)", "values": [
      {"measurement": "T/C", "setting": "dose: 0.18 mg/kg/injection, schedule: Q01DX009 (ip), vehicle: saline", "value": "104 % of control"},
      {"measurement": "T/C", "setting": "dose: 0.37 mg/kg/injection, schedule: Q01DX009 (ip), vehicle: saline", "value": "104 % of control"},
      {"measurement": "T/C", "setting": "dose: 0.75 mg/kg/injection, schedule: Q01DX009 (ip), vehicle: saline", "value": "113 % of control"},
      {"measurement": "T/C", "setting": "dose: 1.5 mg/kg/injection, schedule: Q01DX009 (ip), vehicle: saline", "value": "113 % of control"}
    ]},
    {"smiles": "COc1cccc2c1C(=O)c1c(O)c3c(c(O)c1C2=O)C[C@@](O)(C(C)=O)C[C@@H]3OC1CC(N)C(O)C(C)O1", "note": "(stereo partly drawn)", "values": [
      {"measurement": "T/C", "setting": "[1]", "value": "104 % of control"},
      {"measurement": "T/C", "setting": "[2]", "value": "116 % of control and 87 % of control and 109 % of control"},
      {"measurement": "T/C", "setting": "[3]", "value": "92 % of control"},
      {"measurement": "T/C", "setting": "[4]", "value": "91 % of control and 104 % of control and 109 % of control"},
      {"measurement": "T/C", "setting": "dose: 0.5 mg/kg/injection, schedule: Q01DX009 (ip), vehicle: water", "value": "90 % of control"},
      {"measurement": "T/C", "setting": "[5]", "value": "100 % of control"},
      {"measurement": "T/C", "setting": "[6]", "value": "100 % of control"},
      {"measurement": "T/C", "setting": "dose: 1.0 mg/kg/injection, schedule: Q01DX009 (ip), vehicle: water", "value": "109 % of control"},
      {"measurement": "T/C", "setting": "[7]", "value": "100 % of control"},
      {"measurement": "T/C", "setting": "[8]", "value": "100 % of control"},
      {"measurement": "T/C", "setting": "dose: 2.0 mg/kg/injection, schedule: Q01DX009 (ip), vehicle: water", "value": "100 % of control"}
    ]},
    {"smiles": "O=NN(CCF)C(=O)N[C@H]1CCCC[C@H]1O", "values": [
      {"measurement": "T/C", "setting": "dose: 26.7 mg/kg/injection, schedule: Q01DX001 (ip), vehicle: Klucel (hydroxypropylcellulose) (HPC)", "value": "151 % of control"},
      {"measurement": "T/C", "setting": "dose: 40.0 mg/kg/injection, schedule: Q01DX001 (ip), vehicle: Klucel (hydroxypropylcellulose) (HPC)", "value": "155 % of control"},
      {"measurement": "T/C", "setting": "dose: 60.0 mg/kg/injection, schedule: Q01DX001 (ip), vehicle: Klucel (hydroxypropylcellulose) (HPC)", "value": "330 % of control"}
    ]},
    {"smiles": "COc1cc(NS(C)(=O)=O)ccc1Nc1c2cccc(C)c2nc2c(C)cccc12", "values": [
      {"measurement": "T/C", "setting": "dose: 25.0 mg/kg/injection, schedule: Q04DX003 (ip), vehicle: Klucel (hydroxypropylcellulose) (HPC)", "value": "97 % of control"},
      {"measurement": "T/C", "setting": "dose: 25.0 mg/kg/injection, schedule: Q04DX003 (ip), vehicle: saline", "value": "104 % of control"},
      {"measurement": "T/C", "setting": "dose: 50.0 mg/kg/injection, schedule: Q04DX003 (ip), vehicle: Klucel (hydroxypropylcellulose) (HPC)", "value": "94 % of control"},
      {"measurement": "T/C", "setting": "dose: 50.0 mg/kg/injection, schedule: Q04DX003 (ip), vehicle: saline", "value": "116 % of control"},
      {"measurement": "T/C", "setting": "dose: 100.0 mg/kg/injection, schedule: Q04DX003 (ip), vehicle: saline", "value": "95 % of control"},
      {"measurement": "T/C", "setting": "dose: 200.0 mg/kg/injection, schedule: Q04DX003 (ip), vehicle: saline", "value": "104 % of control"}
    ]},
    {"smiles": "C[C@]1(O)CC[C@H]2[C@@H]3CCC4=CC(=O)CC[C@]4(C)[C@@]3(F)[C@@H](O)C[C@@]21C", "values": [
      {"measurement": "T/C", "setting": "dose: 8.0 mg/kg/injection, schedule: Q01DX009 (ip), vehicle: Klucel (hydroxypropylcellulose) (HPC)", "value": "115 % of control"},
      {"measurement": "T/C", "setting": "dose: 64.0 mg/kg/injection, schedule: Q01DX009 (ip), vehicle: Klucel (hydroxypropylcellulose) (HPC)", "value": "111 % of control"},
      {"measurement": "T/C", "setting": "dose: 128.0 mg/kg/injection, schedule: Q01DX009 (ip), vehicle: Klucel (hydroxypropylcellulose) (HPC)", "value": "111 % of control"},
      {"measurement": "T/C", "setting": "dose: 256.0 mg/kg/injection, schedule: Q01DX009 (ip), vehicle: Klucel (hydroxypropylcellulose) (HPC)", "value": "95 % of control"}
    ]},
    {"smiles": "COc1cccc2c1C(=O)c1c(O)c3c(c(O)c1C2=O)C[C@@](O)(C(=O)CO)C[C@@H]3OC1CC(N)C(O)C(C)O1", "note": "(stereo partly drawn)", "values": [
      {"measurement": "T/C", "setting": "[1]", "value": "91 % of control"},
      {"measurement": "T/C", "setting": "[2]", "value": "108 % of control"},
      {"measurement": "T/C", "setting": "[3]", "value": "100 % of control"},
      {"measurement": "T/C", "setting": "[4]", "value": "112 % of control"},
      {"measurement": "T/C", "setting": "[5]", "value": "100 % of control"},
      {"measurement": "T/C", "setting": "[6]", "value": "104 % of control"},
      {"measurement": "T/C", "setting": "[7]", "value": "107 % of control"},
      {"measurement": "T/C", "setting": "[8]", "value": "108 % of control"},
      {"measurement": "T/C", "setting": "dose: 2.0 mg/kg/injection, schedule: Q03HX008 (ip), vehicle: saline", "value": "96 % of control"},
      {"measurement": "T/C", "setting": "dose: 4.0 mg/kg/injection, schedule: Q01DX009 (ip), vehicle: saline", "value": "116 % of control"}
    ]}
  ]
}
